In publication PMC5007466, “VCP recruitment to mitochondria causes mitophagy impairment and neurodegeneration in models of Huntington's disease” (Nature Communications, 2016):

What was measured:
[1] = tested on: interaction between VCP and UBXD1; experiment: Co-immunoprecipitation VCP/UBXD1; type: cell-based; details: HV-3 treatment; total cell lysates, IP/WB
Procedure: (b) Stick drawings of VCP and Htt main domains. […] Immunoprecipitates were analysed by WB with the indicated antibodies. […] VCP mitochondrial levels were determined by WB. Loading control: VDAC. Data are mean±s.e.m. (g–i) ANOVA with Holm-Sidak post hoc test.

[2] = tested on: HD patient-iPS cell derived neurons; experiment: Mitochondrial mass (Mitotracker green); type: cell-based, human; details: 1 μM per day for 5 days
Procedure: iPS cells from a normal subject and a HD patient (carrying 41 CAG repeats) were differentiated into neurons using the protocol from our previous studies. Briefly, iPS cells were plated onto 6-well plates precoated with 2.5% Matrigel and allowed to reach 90% confluence in feeder-free medium. For the first 10 days, cells were treated with SB431542 (10 μM; Tocris Bioscience) and Noggin (100 ng/ml) in Neural Media (NM) containing Neurobasal and DMEM (1:1), B27 supplement minus vitamin A (50 × , Invitrogen), N2 supplement (100 × , Invitrogen), GlutaMax (Invitrogen, 100 × ), FGF2 ([…]) and EGF ([…]), 100 units per ml penicillin and 100 μg ml^−1 streptomycin). […]
To determine mitochondrial mass in cultures, cells were stained with antibodies against Tom20 or stained with Mitotracker green. The fluorescent density of Tom20 (1:500) or mitotracker green was quantitated using NIH Image J software. […] The images were visualized by microscope and quantitation of the density of red fluorescence was carried out using NIH ImageJ software. For immunocytochemistry study, at least 100 cells per group were counted and quantitated by an observer blind to experimental conditions.

[3] = tested on: R6/2 mice; experiment: DARPP-32 immunostaining of striatum; type: in vivo, mouse; details: R6/2, 3 mg kg^−1 per day, n=6
Procedure: Male hemizygous R6/2 mice (Tg) and their age-matched wt littermates (5-week-old) were implanted with a 28-day osmotic pump (Alzet, Cupertino CA) containing TAT control peptide or HV-3 peptide, which delivered peptides to the mice at a rate of 3 mg kg^−1 per day. The first pump was implanted subcutaneously in the back of 5-week-old mice between the shoulders and replaced once, after 4 weeks.
Mice were deeply anaesthetized and transcardially perfused with 4% paraformaldehyde in PBS. Brains were processed for paraffin embedment. Brain sections (5 μm, coronal) were used for immunohistochemical localization of DARPP-32 (1:500, Epitomics) using the IHC Select HRP/DAB kit (Millipore). Quantitation of DARPP-32 immunostaining was conducted using NIH image J software. The same image exposure times and threshold settings were used for sections from all treatment groups.

[4] = tested on: YAC128 mice; experiment: Rotarod performance; type: in vivo, mouse; details: YAC128, 3 mg/kg/day from 3 months; from 6 to 12 months of age, n=15–20
Excerpt: YAC128 (FVB-Tg(YAC128)53Hay/J, JAX stock number: 004938) breeders (FVB/N genetic background) were purchased from Jackson Laboratories. The YAC128 mice contain a full-length human huntingtin gene modified with a 128 CAG repeat expansion in exon 1. The mice were mated, bred and genotyped in the animal facility of Case Western Reserve University. Male mice at the ages of 2, 3, 6, 9 and 12 months were used in the study.
YAC128 mice (Tg) and their age-matched wt littermates were implanted with an osmotic pump containing TAT control peptide or HV-3 peptide (3 mg/kg/day, each) starting from the age of 3 months. The pump was replaced once every month. By the age of 12 months, the treatments were terminated and the mouse samples were harvested for analysis.
The motor coordination and balance of YAC128 mice were tested on an accelerating Rotarod (IITC Life Sciences, Serials 8) at the ages of 2, 3, 6, 9 and 12 months. Training and baseline testing for motor function tasks were conducted at 2 months of age. For training, mice were given three 120-s trials per day at a fixed-speed of 15 r.p.m. for three consecutive days. During the testing phase, the Rotarod accelerated from 5 to 40 r.p.m. over 3 min; the maximum score was 300 s. Rotarod scores were the average of three trials per day (with 2 h rest between trials) for 3 consecutive days.

[5] = tested on: C57Black mice; experiment: Hematology of naive mice; type: in vivo, mouse; details: 3 mg/kg/day, 4 weeks
Procedure: Supplementary Figure 8 : Toxicity analysis of HV -3in naïve mice .
We performed a toxicity analysis of HV-3 in mice. Six -week-old C57Black mice were treated with saline or peptide HV-3 at 3mg/kg/day by Alzet pump implantation. After 4- week treatment, the plasma, blood and whole mouse bodies of mice were collected. Examination on blood chemistry (Supplementary Table 1), hematology (Supplementary Table 2) and general necropsy of mice were performed at the Animal Diagnostic Laboratory at Stanford University. The experimenter who conducted the analysis was blind to the treatment groups. Automated hematology was performed on the Sysmex XT-2000iV analyzer system. Blood smears were made for all full CBC samples and reviewed by a medical technologist. Manual differentials were performed as indicated by species and automated analysis. Chemistry analysis was performed on the Siemens Dimension Xpand analyzer. […]
Student’s t test. Four-week sustained treatment with HV-3 by pump implantation had no effects on blood chemistry (Supplementary Table 1), hematology (Supplementary Table 2), and gross necropsy of naïve mice when compared to mice treated with saline. […]
Table 2: Effects of 4-w eek treatment w ith HV-3 on hematology of naïve mice […]
Mean SD Mean SD p-value unit n

## CSCC[C@H](NC(=O)[C@@H](NC(=O)[C@H](CC(C)C)NC(=O)[C@@H](NC(=O)[C@H](Cc1c[nH]cn1)NC(=O)CCCCCNC(=O)[C@H](CCCNC(=N)N)NC(=O)[C@H](CCCNC(=N)N)NC(=O)[C@H](CCCNC(=N)N)NC(=O)[C@H](CCC(N)=O)NC(=O)[C@H](CCCNC(=N)N)NC(=O)[C@H](CCCNC(=N)N)NC(=O)[C@H](CCCCN)NC(=O)[C@H](CCCCN)NC(=O)[C@H](CCCNC(=N)N)NC(=O)CNC(=O)[C@@H](N)Cc1ccc(O)cc1)C(C)C)C(C)C)C(=O)N[C@@H](CS)C(=O)N[C@@H](C)C(=O)N[C@H](C(N)=O)[C@@H](C)O [HV-3]
[1]
  interaction between VCP and UBXD1: nor did it influence the interaction between VCP and its known binding protein UBXD1
[2]
  mitochondrial mass: corrected these aberrant events
[3]
  area of DARPP-32-immunostained cells in striatum: increased by HV-3 treatment
[4]
  rotarod performance: improved general movement activity and rotarod performance
[5]; mean, n = 4/group
  Eosinophils: 37.00
  HCT: 44.60%
  Hgb: 13.93 gm/dL
  IRF: 53.97%
  Lymphocytes: 1645.00
  MCH: 14.90 pg
  MCHC: 31.27 g/dL
  MCV: 47.67 fL
  Monocytes: 182.33
  Neutrophils: 1525.67
  Platelet count: 1021.33 K/uL
  RBC: 9.37 M/uL
  RDW: 21.77%
  Reticulocyte Count: 4.30%
  WBC: 3.39 K/uL
[5]; versus saline
  hematology (overall): no effects
